From PubChem BioAssay (NCI)
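Method: 48-hour compound exposure of cells in 96-well plates, five concentrations, linear interpolation of endpoints. GI50: concentration for 50% inhibition of growth. TGI: total growth inhibition.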

Experiments:
Assay in all cases: NCI tumour cell line growth inhibition, 48 h
SN12C renal = test system: SN12C renal
UACC-62 melanoma = test system: UACC-62 melanoma
NCI-H460 lung = test system: NCI-H460 lung
K-562 leukemia = test system: K-562 leukemia
SNB-75 CNS = test system: SNB-75 CNS
TK-10 renal = test system: TK-10 renal
CCRF-CEM leukemia = test system: CCRF-CEM leukemia
SW-620 colon = test system: SW-620 colon
SF-539 CNS = test system: SF-539 CNS
MDA-MB-231 breast = test system: MDA-MB-231 breast

Structure (SMILES)	TGI (SN12C renal) [µM]	TGI (UACC-62 melanoma) [µM]	TGI (NCI-H460 lung) [µM]	TGI (K-562 leukemia) [µM]	TGI (SNB-75 CNS) [µM]	TGI (TK-10 renal) [µM]	TGI (CCRF-CEM leukemia) [µM]	TGI (SW-620 colon) [µM]	TGI (SF-539 CNS) [µM]	GI50 (SN12C renal) [µM]	GI50 (UACC-62 melanoma) [µM]	GI50 (NCI-H460 lung) [µM]	GI50 (K-562 leukemia) [µM]	GI50 (SNB-75 CNS) [µM]	GI50 (TK-10 renal) [µM]	GI50 (CCRF-CEM leukemia) [µM]	GI50 (SW-620 colon) [µM]	GI50 (SF-539 CNS) [µM]	GI50 (MDA-MB-231 breast) [µM]	TGI (MDA-MB-231 breast) [µM]
CC(=O)O[C@@H]1CC(C)C2CC2C2=C(C(O)OC2O)[C@@H]1C(C)CCC=C(C)C (some centres not stated)	35.9	67.3	38.3	66.9	76.1	90	51.9	51.2	34.2											
O=Cc1[nH]c2ccccc2c1Br	50.5	33.7		47.4	52.6	74.3	99.2	> 100	34.5											
Cc1cc2c(c(C#N)c1C)NC(=O)C(CC(=O)O)C2=O (configuration not stated)	> 100	> 100	> 100	> 100	> 100	> 100	> 100	> 100	> 100											
CCCCC(=O)[O-].N.N.N.N.N.[Co+3].[O-][Cl+3]([O-])([O-])[O-]	> 100	> 100	> 100	> 100	> 100	> 100	> 100	> 100	> 100	> 100	> 100	> 100	> 100	49.3	> 100	> 100	> 100	> 100		
Cc1ccc(C2=Nc3ccccc3NC(=O)C2)cc1	> 100	> 100	> 100	> 100	> 100	> 100	> 100	> 100	> 100											
O=[N+]([O-])c1cc(Br)cc2c1[nH]c1ccc(Br)cc12	> 100	> 100	66.6		14.8	8.48		> 100	71.7	53.8	22.1	4.66		2.12	2.46		7.97	12.2	2.71	> 100
CCOC(=O)[C@@H](C)C[C@H](Cc1ccccc1)NC(=O)c1csc([C@@H](C[C@H](C(C)C)N(C)C(=O)[C@H](CCC(C)C)NC(=O)[C@H]2CCCCN2C)OC(C)=O)n1	4.59	6.92	3.78	4.45		> 33.3	4.35	7.14	0.0289	0.0159	< 0.00333	0.00407	< 0.00333		4.12	0.006	< 0.00333	0.00838	0.00821	0.398
Cc1c(Cl)cccc1NC(=O)c1sc2nc3c(cc2c1N)CCCCCC3	> 50	46.6	> 50	> 50		47.4	> 50	> 50	7.93	0.408	0.205	0.187	0.113		10.7	0.176	0.175	0.168	0.356	> 50
COc1ccc(C=NC23CC4CC(CC(C4)C2)C3)cc1	> 100	> 100	> 100	> 100	> 100	> 100	> 100	> 100	> 100											
COc1ccc2nc(NC(=O)C(=O)CC(=O)c3ccc(Cl)cc3)sc2c1	> 100	> 100	> 100		99.1	> 100	> 100	> 100	98.4											
C=CCN=C1N=C(CC(=O)OCC)CS1	> 100	> 100	> 100	> 100	> 100	> 100	> 100	> 100	> 100											
CC(=S)NNC(=O)c1ccncc1	> 100	> 100	> 100	> 100	> 100	> 100	> 100	> 100	> 100											
CN(C)CCCn1c2c3ccccc3ccc2c2oc(=O)c3ccccc3c21		20.3	6.64		12	23	> 21.3	7.95	7.82											
O=C(O)c1ccc([N+](=O)[O-])c2c(=O)c3ccccc3[nH]c12	> 100	> 100	> 100	> 100	> 100		> 100	> 100	> 100											
CC(C)(C)C(=O)C(c1ccc(-c2cscn2)cc1)c1ccc(-c2cscn2)cc1	> 100	> 71.4	> 100	> 100	25.6	92	> 100	> 100	> 56.3											
Cc1cc(-c2nc3ccc(O)cc3s2)ccc1N	> 100	> 100	> 100	> 100	71	> 100	> 100	> 100		39	57.7	38.9	36.4	15.8	76.8	0.797	66.8		44.7	> 100
NC(=NC1CCCCCC1)c1ccc(N2CCN(c3ccc(C(N)=NC4CCCCCC4)cc3)CC2)cc1	16.9	17.2	16.8	> 50		> 50	46.5	> 50		2.33	7.8	3.65	4.57		14.6	10.5	10.8		8.39	29
Cl.Fc1c[c-]c(-c2ccccn2)c(F)c1.[Pt].c1ccc([PH+](CC[PH+](c2ccccc2)c2ccccc2)c2ccccc2)cc1		0.364			0.534	1.13			0.976		0.128		0.0369	0.0234	0.157			0.164	0.178	0.496
CNS(=O)(=O)NN(C)S(=O)(=O)c1ccc(Br)cc1	> 100	> 100		> 100	> 100	> 100	> 100	> 100	> 100											

Structure (SMILES)	TGI (SN12C renal) [µM]	TGI (UACC-62 melanoma) [µM]	TGI (NCI-H460 lung) [µM]	TGI (K-562 leukemia) [µM]	TGI (SNB-75 CNS) [µM]	TGI (TK-10 renal) [µM]	TGI (CCRF-CEM leukemia) [µM]	TGI (SW-620 colon) [µM]	TGI (SF-539 CNS) [µM]	GI50 (SN12C renal) [µM]	GI50 (UACC-62 melanoma) [µM]	GI50 (NCI-H460 lung) [µM]	GI50 (K-562 leukemia) [µM]	GI50 (SNB-75 CNS) [µM]	GI50 (TK-10 renal) [µM]	GI50 (CCRF-CEM leukemia) [µM]	GI50 (SW-620 colon) [µM]	GI50 (SF-539 CNS) [µM]	GI50 (MDA-MB-231 breast) [µM]	TGI (MDA-MB-231 breast) [µM]
COC[C@H]1OC(=O)c2coc3c2[C@@]1(C)C1=C(C3=O)[C@@H]2CCC(=O)[C@@]2(C)C[C@H]1OC(C)=O	> 100	17.5	> 100	> 100		> 100	> 53.5	> 100	31										14.4	> 100
CCc1nc2ccc(Cc3ccc(C(=O)NO)cc3)cc2c(=O)n1CCc1ccccc1		2.64	2.07	> 100	3.71	2.89	> 100	2.23	3.65		0.52	0.52	1.02	1.41	1.28	0.568	0.412	1.46	1.31	3.98
COc1ccc(/C=C2\CNC/C(=C\c3ccc(OC)cc3)C2=O)cc1	> 100	> 100	> 100	65.2	> 100	> 100	44.8	> 100	41.6											
Cc1cc(S(=O)(=O)NC#N)c(S/C(=N\Nc2ccc([N+](=O)[O-])cc2)c2ccccc2)cc1Cl	52.3	51.8	36.3	42.9	> 100	38.3	51.5	30.8		20.9	21.5	18.7	15.2	20.4	16	20.2	17.1			
O=C1NC2(O)c3ccccc3C(=O)C2(O)N1c1ccccc1 (configuration not stated)		> 100	> 100	> 100	> 100	> 100	> 100	> 100	> 100											
COc1cc2c(cc1OC)[C@@H](C(O)c1ccccc1)NCC2 (some centres not stated)	> 100	> 100	> 100	> 100	> 100	> 100	> 100	> 100	> 100											
O[C@]12CCCC[C@H]1CCC2	> 100	> 100	> 100	> 100	> 100	> 100	> 100	> 100	> 100											
O=C(N/N=C/c1cc(Br)cc(Br)c1[O-])c1ccccc1O.O=C(N/N=C/c1cc(Br)cc(Br)c1[O-])c1ccccc1O.[Mn+2]	16.5	17.2	13.9	12.1	15.5	31	6.42	24.1	5.56	1.56			1.66			0.263				
CN(C)c1ccc(/C=C2\N=C(c3ccc(N)cc3)OC2=O)cc1	> 100	> 100	> 100	> 100	> 100	> 100	> 100	> 100	> 100											
Cc1nn2c(/C=C3/C(=O)Nc4ccccc43)c(-c3ccc(Cl)cc3)nc2s1		21.4	> 50	> 50		32.1	> 50	> 50	1.27		10.2	22.1	> 50		12.3	12.3	> 50	0.0174	7.05	21.3
CCOC(=O)C#Cc1ccc(C#CC(=O)OCC)cc1		> 23.4	> 46.8		0.609	17.8	> 20.8	> 27.4	> 47.5											> 22.7
CCN(CC)C(=S)N/N=C(\C)c1ccccc1O	> 100	> 100	97.4	> 100	> 100	> 100	78	> 100	54.4											
COc1ccc(C(=O)/C=C/c2cc(C(=O)c3cc(OC)c(OC)c(OC)c3)ccc2OC)cc1				> 100	33.7	> 100		> 100					2.86	4.75	14		3.07		3.69	> 100
COC1=C(C(=O)OC(C)(C)C)[C@]2(C)C(C(=O)OC(C)(C)C)C(OC)=C(C(=O)OC(C)(C)C)[C@]2(C)C1C(=O)OC(C)(C)C (some centres not stated)	> 100	> 100	> 100	> 100	> 100	> 100	> 100	> 100	> 100											
Cc1c(C(=O)CC(=O)C(=O)Nc2cccc(C(F)(F)F)c2)[n+](=O)c2ccccc2n1[O-]	11	7.55	8.5	14.1	7.86	79.7	7.24	12.2	8.58											
NC(=O)C1=C(c2ccccc2)c2ccccc2C1=O	33.8	32.7	33.4	> 100	36.2	32.4	7.71	66.6												32.4
Cc1cccc(C)c1NC(=O)C(=O)CC(=O)CO	> 100	> 100	> 100	> 100	> 100	> 100	> 100	> 100	> 100											
N#CC(C#N)=CN1CCN(C(=O)c2ccccc2)C1=S	65.8	> 100	66.5	> 100	> 100	75.1	> 100	> 100		24.6	50.4	20	79.5	> 100	23.3	> 100	33.7		36.1	> 100
COC1CC(OS(=O)(=O)c2ccc(C)cc2)C(OS(=O)(=O)c2ccc(C)cc2)C(COS(=O)(=O)c2ccc(C)cc2)O1 (configuration not stated)	20.8	18.6	24.7	> 100	2.48		> 100	57.7	6.65											
